Measured values as given in PMC10376691, “Inhibition of Acetylcholinesterase and Amyloid-β Aggregation by Piceatannol and Analogs: Assessing In Vitro and In Vivo Impact on a Murine Model of Scopolamine-Induced Memory Impairment” (Antioxidants, 2023).
“Also recorded” adds a separate entry of the source.

Assays:
[1] = tested on: scopolamine-induced mice with cognitive impairment; settings: one-month pre-treatment via cannula into the third ventricle, total 65 ng/month/head; cited from earlier work
[2] = DPPH radical scavenging activity; settings: 120 μM DPPH in methanol, 37 °C, 20 min
Experimental: DPPH radical scavenging activity was assayed following a previous report, with some modifications. […] DMSO was used instead of a sample solution in the blank group. […] The scavenging activity of the DPPH radical (%) was calculated with the following equation: (△A515blank − △A515sample) ÷ △A515blank × 100%. The IC50 of the DPPH radical scavenging activity of PIC and its analogs or that of Trolox was calculated from each linear equation by three test concentrations and their radical scavenging activities.

Aβ peptide (1–42) = target: T1, Aβ peptide (1–42) (Homo sapiens, UniProt P05067); assay: biochemical; settings: 10 μM Aβ working solution, ThT, 37 °C, 24 h; read-out: IC50 of the anti-Aβ peptide (1–42) aggregation
T1 construct: The Aβ peptide (1–42) was synthesized and purchased from Kelowna International Scientific Inc; purchased Kelowna International Scientific Inc. (New Taipei, Taiwan); host or cells: chemical synthesis
T1 sequence (P05067 672-713): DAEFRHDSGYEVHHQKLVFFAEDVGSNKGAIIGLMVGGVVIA
Experimental: To prepare the 10 μM Aβ peptide working solution, commercial Aβ peptide was first weighted and dissolved in HFIP to 1 mM. Next, the solvent was evaporated in a hood and then re-dissolved using 100 μL of 60 mM NaOH. It was then diluted to 10 μM working solutions with 50 mM phosphate buffer (pH 7.4, containing 150 mM sodium chloride and 1 mM EDTA), following previous reports. […] DMSO instead of the sample solution was used as the control. The 50 mM phosphate buffer was used instead of the Aβ working solution as the sample blank. […] The IC50 of the inhibition against the Aβ aggregation of PIC and its analogs was calculated from each linear equation using three test concentrations and their inhibition capacities.

[3] = read-out: Cmax of metabolite; after intravenous PIC 90 μmole/kg (21.98 mg/kg), SD rats; cited from earlier work
recombinant human AChE = target: T2, recombinant human AChE (Homo sapiens, UniProt P22303); assay: AChE inhibitory activity in vitro (acetylthiocholine/DTNB); type: biochemical; settings: calculated from 100, 200, 500 μM; read-out: IC50 of the anti-AChE activity
T2 construct: purchased R&D Systems Inc. (Minneapolis, MN, USA)
T2 sequence (P22303 32-614): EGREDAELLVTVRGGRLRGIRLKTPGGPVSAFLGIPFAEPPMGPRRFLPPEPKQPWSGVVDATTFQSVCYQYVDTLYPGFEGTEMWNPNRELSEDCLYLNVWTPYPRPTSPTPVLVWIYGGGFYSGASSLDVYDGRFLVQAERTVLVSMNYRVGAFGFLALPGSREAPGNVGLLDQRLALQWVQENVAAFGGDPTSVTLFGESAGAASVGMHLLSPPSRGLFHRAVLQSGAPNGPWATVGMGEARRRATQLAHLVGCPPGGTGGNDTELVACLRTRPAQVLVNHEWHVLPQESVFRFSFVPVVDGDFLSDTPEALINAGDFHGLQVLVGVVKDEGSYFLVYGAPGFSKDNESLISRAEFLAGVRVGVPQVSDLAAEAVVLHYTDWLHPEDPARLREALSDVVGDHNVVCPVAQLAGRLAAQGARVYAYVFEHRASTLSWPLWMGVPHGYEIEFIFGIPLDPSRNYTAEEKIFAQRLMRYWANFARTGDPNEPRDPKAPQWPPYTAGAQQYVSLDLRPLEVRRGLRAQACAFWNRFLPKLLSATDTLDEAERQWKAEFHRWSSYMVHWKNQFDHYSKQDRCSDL
Experimental: Commercially synthesized acetylthiocholine iodide was hydrolyzed using AChE to release thiocholine, which was coupled with DTNB to generate the yellowish 5-thio-2-nitrobenzoate for in vitro AChE activity assays. For the AChE inhibitory activity assay, each analog was dissolved in the DMSO, and final concentrations of 100, 200, and 500 μM were used for comparisons. An equal volume of DMSO instead of the sample solution was used in the blank group and expressed as 100% AChE activity. […] AChE inhibition (%) was calculated as follows: [(A405blank − A405sample)/(A405blank)] × 100%.

SH-SY5Y cells [4] = assay: Neuroprotection against Aβ peptide (25–35)-induced cell deaths (MTT); type: cell-based, human; settings: pre-treatment 1, 2 and 10 μM for 24 h, then 40 μg/mL Aβ (25–35) 24 h; vs control p < 0.05
Experimental: The human SH-SY5Y neuroblastoma cell lines (CRL-2266, Lot No. 58979771) were purchased from American Type Culture Collection (Manassas, VA, USA) and used as models to investigate PIC and its analogs for neuroprotective activities against Aβ-induced cell deaths and the stimulation of neurite outgrowths. The SH-SY5Y cells were grown in DMEM/F-12 medium supplemented with 10% FBS at 37 °C under a humidified atmosphere and 5% CO2 [41]. […]. The SH-SY5Y cells (10,000 cells/well) were seeded and cultured in a DMEM/F-12 medium containing 10% FBS for 24 h at 37 °C under a humidified atmosphere and 5% CO2. […] The medium was then removed, and 40 μg/mL Aβ peptide (25–35) (dissolved in PBS) or an equal aliquot of PBS was added to the medium for another 24 h culture. The MTT was used to evaluate cell viability, and the absorbance at 570 nm was determined. The DMSO used instead of the sample solution was blank (recognized as 100%), and each treatment was expressed as relative cell viability (%). To study the stimulation of neurite outgrowth, the SH-SY5Y cells (5000 cells/well) were seeded on a 96-well plate pre-coated with poly-L-lysine and then cultured in the DMEM/F-12 medium containing 10% FBS overnight at 37 °C under a humidified atmosphere and 5% CO2. After being removed from the culture medium, each PIC, GNT, RHA, and isoRHA (at a final concentration of 10 μM in the 0.1%DMSO) or 0.1% DMSO (the control) was added to the DMEM/F-12 medium containing 10% FBS and refreshed every three days. On day 3 and day 6, each of the culture plates was photographed using an inverted microscope (ECLIPSE TS100, Nikon Instruments Inc., Tokyo, Japan). The culture medium was removed and washed with PBS, and the cultured cells in each well were fixed with 4% paraformaldehyde. To measure cell viability and quantify the neurite outgrowths of the treated SH-SY5Y in a 96-well plate, the neurite outgrowth staining kit (a two-color fluorescence assay kit) was used, following a previous report or the protocol in the manufacturer’s manual (publication number: MAN0007224), which included a cell membrane-stained fluorescent dye (orange-red fluorescence), a cell viability indicator (green fluorescence), and a reagent for background masking. The fluorescence ratios of Ex555nm/Em565nm and Ex495nm/Em515nm were determined for the neurite outgrowths and the cell viabilities, respectively. The value for the control was recognized as 100%, and each treatment was expressed relative to the control.

SH-SY5Y cells [5] = assay: Neurite outgrowth and cell viability, two-color fluorescence assay kit; type: cell-based; settings: 10 μM
Experimental: (§1) The SH-SY5Y cells were grown in DMEM/F-12 medium supplemented with 10% FBS at 37 °C under a humidified atmosphere and 5% CO2 [41]. […] The MTT was used to evaluate cell viability, and the absorbance at 570 nm was determined. The DMSO used instead of the sample solution was blank (recognized as 100%), and each treatment was expressed as relative cell viability (%). To study the stimulation of neurite outgrowth, the SH-SY5Y cells (5000 cells/well) were seeded on a 96-well plate pre-coated with poly-L-lysine and then cultured in the DMEM/F-12 medium containing 10% FBS overnight at 37 °C under a humidified atmosphere and 5% CO2. After being removed from the culture medium, each PIC, GNT, RHA, and isoRHA (at a final concentration of 10 μM in the 0.1%DMSO) or 0.1% DMSO (the control) was added to the DMEM/F-12 medium containing 10% FBS and refreshed every three days. On day 3 and day 6, each of the culture plates was photographed using an inverted microscope (ECLIPSE TS100, Nikon Instruments Inc., Tokyo, Japan). The culture medium was removed and washed with PBS, and the cultured cells in each well were fixed with 4% paraformaldehyde. To measure cell viability and quantify the neurite outgrowths of the treated SH-SY5Y in a 96-well plate, the neurite outgrowth staining kit (a two-color fluorescence assay kit) was used, following a previous report or the protocol in the manufacturer’s manual (publication number: MAN0007224), which included a cell membrane-stained fluorescent dye (orange-red fluorescence), a cell viability indicator (green fluorescence), and a reagent for background masking. […] The value for the control was recognized as 100%, and each treatment was expressed relative to the control.

[6] = as above; type: cell-based; settings: human, SH-SY5Y neuroblastoma cells, 3-day or 6-day treatment, green fluorescence, read-out: cell viability relative to the control
Experimental: as §1

[7] = cited from earlier work
[8] = tested on: scopolamine-induced amnesiac ICR mice; settings: pre-treatment 40 mg/kg; cited from earlier work
early Alzheimer’s = settings: 18-month phase-3 trial; cited from earlier work

## Oc1ccc([C@H]2c3c(O)cc(O)cc3[C@H]3c4c(cc(O)cc4[C@@H]2O)O[C@@H]3c2ccc(O)cc2)cc1 [ampelopsin A]
[1]
  learning behavior, passive avoidance test and novel object recognition: clear restoration of learning behavior

## COc1cc(C=Cc2cc(O)cc(O)c2)ccc1O [isoRHA, 3,5,4′-trihydroxy-3′-methoxystilbene]
[2]
  IC50: 72.9 µM
Aβ peptide (1–42)
  IC50: 1.94 µM
[3]
  Cmax: 5.08 ± 0.31 µM
Recombinant human AChE
  IC50: 322 µM
SH-SY5Y cells [4]
  neuroprotection: cell viability against Aβ peptide (25–35)-induced cell deaths: elevated cell viabilities
SH-SY5Y cells [5]; 3-day or 6-day treatment, orange-red fluorescence, vs control
  stimulation of neurite outgrowths: stimulate neurite outgrowths; also recorded: showed stimulated activities toward neurite outgrowths; also recorded: showed stimulatory activity in neurite outgrowths
SH-SY5Y cells [5]; calculated
  total neurite lengths in living SH-SY5Y cells, fold of the control: 1.375 fold
[6]
  viability at 10 µM: 80%

## OC[C@H]1O[C@@H](Oc2cc(/C=C/c3cc(O)cc(O)c3)ccc2O)[C@H](O)[C@@H](O)[C@@H]1O [piceatannol-3′-O-β-D-glucopyranoside]
[7]
  crossing of the BBB: reported to cross the BBB

## Oc1ccc([C@H]2c3c(O)cc(O)cc3[C@H]3c4c(cc(O)cc4[C@@H]2c2cc(/C=C/c4cc(O)cc5c4[C@H](c4cc(O)cc(O)c4)[C@@H](c4ccc(O)cc4)O5)ccc2O)O[C@@H]3c2ccc(O)cc2)cc1 [vitisin A]
[8]
  learning and memory functions via the passive avoidance test: improved learning and memory functions

B1: lecanemab (antibody, chains of the INN, looked up, V domains shown)
VH: EVQLVESGGGLVQPGGSLRLSCSASGFTFSSFGMHWVRQAPGKGLEWVAYISSGSSTIYYGDTVKGRFTISRDNAKNSLFLQMSSLRAEDTAVYYCAREGGYYYGRSYYTMDYWGQGTTVTVSS
VL: DVVMTQSPLSLPVTPGAPASISCRSSQSIVHSNGNTYLEWYLQKPGQSPKLLIYKVSNRFSGVPDRFSGSGSGTDFTLRISRVEAEDVGIYYCFQGSHVPPTFGPGTKLEIK
Early Alzheimer’s
  less decline in measures of cognition and function as compared to a placebo: 25%
